Laboratory results as given in patent publication US5089623A, “Certain imidate insecticides” (Imperial Chemical Industries Plc, priority 1990, dated 1992).

How the values were obtained:
Type in all cases: in vivo
[1] = system: Maize weevil [Sitophilus Zeamais (Motschulsky)]; experiment: Maize weevil test (MW); details: adult weevils, treated corn seeds, 48 hours, percent in solution
How it was run: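 Adult weevils (10) were placed with four corn seeds that had been dipped 2-3 s in compound dissolved in 50:50 acetone:water, then dried, and held at about 25° C. Mortality was scored at 48 h. LC50 was taken from dosage-mortality curves and expressed as percent compound in solution, from a 0.01% top concentration.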

[2] = system: Tobacco Budworm [Heliothis virescens (Fabricius)] eggs; experiment: Tobacco budworm egg test (TBW-E); details: percent in solution
[3] = system: Rice water weevil [Lissorhoptrus oryzophilus (Kuschel)]; experiment: Rice water weevil test (RWW); details: per weevil, topical, female adults, 48 hours
Protocol: (§1) The compounds in Tables 1 and 2 above were tested for insecticidal activity using the following testing procedures. LC50 values, based on the results of these tests and calculated according to dosage-mortality curves, are expressed in Table 3.
Rice water weevil [Lissorhoptrus oryzophilus (Kuschel)]
Test compounds were diluted in acetone. Droplets (1 ul) of test solutions were applied to the ventral abdomens of ten female adult weevils. The treated weevils were placed in containers with wet cotton balls and rice foliage. The containers were covered and kept at a temperature of about 25° C. Mortality was recorded after 48 hours. […] The LC50 values are expressed below in Table 3 under the heading "RWW" in terms of μg of test compound per weevil.

[4] = system: Cabbage Looper [Trichoplusia ni (Hubner)]; experiment: Cabbage looper test (CL); details: second-instar larvae, 3-5 days, percent in solution
[5] = system: Housefly [Musca domestica]; experiment: Housefly insecticidal test (HF); details: per 25 female houseflies, 48 hours
[6] = system: Aster Leafhopper [Macrosteles fascifrens (Stal)]; experiment: Aster leafhopper test (LH); details: adults/nymphs, 48 hours, percent in solution
[7] = system: Beet Armyworm (Spodoptera exigua); experiment: Beet armyworm test (BAW)
Protocol: as §1
Beet Armyworm (Spodoptera exigua)
Test compounds were diluted in a 50-50 acetone-water solution. Young leaves of sugar beets (Beta vulgaris) were immersed in the test solutions for 2-3 seconds and placed on a wire screen to dry. The dried leaves were placed in petri dishes containing a moistened filter paper and infested with five second-instar beet armyworm larvae. The dishes were placed in a high humidity chamber. Mortality of the larvae was recorded five days later. Test concentrations ranged from 0.1% downward. The LC-50 values are expressed below in Table 3 under the heading "BAW" in terms of percent of the test compound in solution.

[8] = system: Tobacco Budworm [Heliothis virescens (Fabricius)]; experiment: Tobacco budworm contact test (TBW-C); details: second-instar larvae, 5 days, percent in solution
How it was run: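 Cotton cotyledons dipped 2–3 s in compound in 50:50 acetone–water, dried, then infested with 5 second-instar larvae and held 5 days at high humidity before scoring mortality.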

[9] = second-instar larvae, five days, percent in solution

Structure (SMILES)	LC50 MW [1] [%]	LC50 TBW E [2] [%]	LC50 RWW [3] [µg]	LC50 CL [4] [%]	LC50 HF [5] [µg]	LC50 LH [6] [%]	LC50 BAW ([7]; 120 h) [%]	LC50 TBW C [8] [%]	LC50 BAW [7, 9] [%]
CC(C)C(=Nc1ccc(C(F)(F)F)c(Br)c1)OCc1ccc(F)c(Oc2ccc(Cl)cc2)c1 [Compound 377]	> 0.01	> 0.1	> 2.5	0.00062	< 100	–	–	–	–
CC(C)C(=Nc1ccc(C(F)(F)F)cc1)OCc1ccc(F)c(Oc2ccc(F)cc2)c1 [Compound 314]	–	0.012	0.11	0.00005	21	–	–	–	–
CC(C)C(=Nc1ccc(Br)c(Cl)c1)OCc1ccc(F)c(Oc2ccc(Cl)cc2)c1 [Compound 381]	> 0.01	0.018	> 2.5	0.00092	< 100	–	–	–	–
CC(C)C(=Nc1ccc(F)c(Cl)c1)OCc1cc(Oc2ccc(F)cc2)ccc1F [Compound 230]	0.038	0.1	> 2.5	0.0004	36	–	–	–	–
CC(C)C(=Nc1cccc(F)c1)OCc1ccc(F)c(Oc2ccc(Cl)cc2)c1 [Compound 375]	> 0.01	0.04	> 2.5	> 0.1	7.9	–	–	–	–
CC(C)C(=Nc1cccc(Br)c1)OCc1ccc(F)c(Oc2ccccc2)c1 [Compound 387]	> 0.01	0.05	> 2.5	0.0012	< 100	–	–	–	–
CC(C)C(=Nc1c(F)c(F)c(F)c(F)c1F)OCc1cccc(Oc2ccc(F)cc2)c1 [Compound 198]	0.003	> 0.1	> 2.5	0.0005	52	0.05	–	–	–
CC(C)C(=Nc1ccc(F)c(Cl)c1)OCc1cccc(Oc2ccc(F)cc2)c1F [Compound 262]	0.005	> 0.1	> 2.5	0.0004	26	–	–	–	–
CC(C)C(=Nc1ccc(Cl)c(OCC(F)(F)F)c1)OCc1ccc(F)c(Oc2ccc(Cl)cc2)c1 [Compound 452]	> 0.01	< 0.1	0.1	0.0017	> 100	–	–	–	–
CC(C)C(=Nc1ccc(F)c(Cl)c1)OCc1cccc(Oc2ccc(F)cc2F)c1 [Compound 191]	0.004	0.04	> 2.5	0.00023	29	> 0.05	–	–	–
CC(C)C(=Nc1ccc(F)c(Cl)c1)OCc1cccc(Oc2cccc(F)c2)c1 [Compound 125]	> 0.01	0.025	> 2.5	0.0007	12	> 0.05	–	–	–
CC(C)C(=Nc1ccc(Cl)cc1)OCc1ccc(F)c(Oc2ccc(Cl)cc2)c1 [Compound 391]	–	0.035	> 2.5	0.00029	< 100	–	–	–	–
CC(C)C(=Nc1ccc(C(F)(F)F)c(Br)c1)OCc1ccc(F)c(Oc2ccc(Cl)cc2)c1 [Compound 433]	0.005	0.02	0.078	0.00017	< 100	–	–	–	–
CC(C)C(=Nc1ccc(Cl)c(Cl)c1)OCc1ccc(F)c(Oc2ccccc2)c1 [Compound 376]	0.0061	0.02	0.1	0.00037	17	–	–	–	–
CC(C)C(=Nc1ccc(Cl)c(Cl)c1)OCc1ccc(F)c(Oc2ccc(F)cc2)c1 [Compound 289]	> 0.01	0.006	0.082	0.00007	10	0.0003	–	–	–
CC(C)C(=Nc1ccc(F)c(Br)c1)OCc1cccc(Oc2ccccc2)c1 [Compound 254]	–	0.026	> 2.5	0.001	6	–	–	–	–

Structure (SMILES)	LC50 MW [1] [%]	LC50 TBW E [2] [%]	LC50 RWW [3] [µg]	LC50 CL [4] [%]	LC50 HF [5] [µg]	LC50 LH [6] [%]	LC50 BAW ([7]; 120 h) [%]	LC50 TBW C [8] [%]	LC50 BAW [7, 9] [%]
FC(F)(F)c1ccc(N=C(OCc2cccc(Oc3ccccc3)c2)C2CC2)cc1 [Compound 62]	> 0.01	0.025	–	0.005	20	> 0.05	0.02	0.0015	–
CC(Cl)C(=Nc1ccc(Cl)cc1)OCc1cccc(Oc2ccccc2)c1 (stereo not shown) [Compound 33]	> 0.01	> 0.1	–	0.01	17	> 0.05	–	0.0025	0.02
CC(C)C(=Nc1cccc(C(F)(F)F)c1)OCc1ccc(F)c(Oc2ccc(F)cc2)c1 [Compound 268]	> 0.01	0.023	–	0.000025	4	0.0005	–	0.0005	0.001
Clc1ccc(N=C(OCc2cccc(Oc3ccccc3)c2)C(Cl)Cl)cc1 [Compound 29]	> 0.01	0.01	–	0.002	5	0.003	–	0.001	0.003
CCOc1ccc(N=C(OCc2ccc(F)c(Oc3ccc(Cl)cc3)c2)C(C)C)cc1Cl [Compound 369]	> 0.01	> 0.1	> 2.5	0.0016	> 100	–	–	–	–
CC(C)(F)C(=Nc1ccc(F)c(Cl)c1)OCc1ccc(F)c(Oc2ccc(F)cc2)c1 [Compound 310]	–	0.015	> 2.5	0.00006	4.5	–	–	–	–
CC(C)C(=Nc1ccc(C(F)(F)F)cc1)OCc1cccc(Oc2ccccc2)c1 [Compound 68]	> 0.01	0.009	0.15	0.006	37	0.0001	–	–	–
CCOc1ccc(N=C(OCc2ccc(F)c(Oc3ccccc3)c2)C(C)C)cc1Cl [Compound 370]	> 0.01	0.02	> 2.5	0.00034	< 100	–	–	–	–
CC(C)C(=Nc1cccc(Cl)c1)OCc1cccc(Oc2ccc(Cl)cc2)c1 [Compound 270]	> 0.01	> 0.01	–	0.00025	12	0.003	–	> 0.0015	0.005
CC(C)C(=Nc1ccc(Br)c(Cl)c1)OCc1cccc(Oc2ccc(Cl)cc2)c1 [Compound 380]	> 0.01	> 0.1	> 2.5	> 0.1	> 100	–	–	–	–
Fc1ccc(N=C(OCc2cccc(Oc3ccccc3)c2)C2CC2)cc1Cl [Compound 113]	–	0.1	> 2.5	0.005	15	–	–	–	–
CC(C)C(=Nc1ccc(Br)cc1)OCc1ccc(F)c(Oc2ccc(Cl)cc2)c1 [Compound 378]	> 0.01	0.02	> 2.5	0.00034	< 100	–	–	–	–
CC(C)C(=Nc1ccc(Br)c(Cl)c1)OCc1ccc(F)c(Oc2ccc(F)cc2)c1 [Compound 382]	> 0.01	0.027	> 2.5	0.00029	< 100	–	–	–	–
C=C(C)C(=Nc1ccc(C(F)(F)F)cc1)OCc1ccc(F)c(Oc2ccccc2)c1 [Compound 431]	0.0037	0.025	0.084	0.00017	9.8	–	–	–	–
CCC(=Nc1ccc(F)c(Cl)c1)OCc1cccc(Oc2ccccc2)c1 [Compound 85]	> 0.01	> 0.1	> 2.5	0.004	7	0.003	–	–	–
